Key:
EGFR (L858R T790M C797S) = target: T1, EGFR (L858R T790M C797S) (Homo sapiens, UniProt P00533, C797S/L858R/T790M); test: Biochemical EGFR inhibition assay (Caliper mobility shift), EGFR LRTMCS; conditions: LRTMCS (PH) IC50 (nM) @ 1 mM ATP (Num), EGFR LRTMCS mutant
T1 construct: purchased SignalChem E10-122VG
Method: Reactions proceeded until between 10% to 20% total peptides were phosphorylated at room temperature (25° C.) and were terminated with 35 mM 2,2′,2″,2′″-(ethane-1,2-diyldinitrilo)tetraacetic acid (EDTA). Product was detected using the Caliper mobility shift detection method where the phosphorylated peptide (product) and substrate were electrophoretically separated and measured. Percent activity was plotted against log concentration of compound and points to generate an apparent IC50.

[1] = target: T2, intracellular phosphorylation of EGFR in NCI-H1975 cell line that harbors the EGFR L858R T790M mutations (Homo sapiens, UniProt P00533, L858R/T790M); test: NCI-H1975 pEGFR AlphaLISA assay; format: cell-based; conditions: NCI-H1975 cells (EGFR L858R T790M), p-EGFR (Tyr1068), 4-5 hours incubation; read-out: Ext pEGFR H1975 GMean IC50 (nM) Protocol: @Pharmaron AlphaLISA (Num)
T2 construct: NCI-H1975 cell line that harbors the EGFR L858R T790M mutations (ATCC, CRL-5908); host or cells: NCI-H1975
T2 sequence (P00533 25-1210 T790M/L858R): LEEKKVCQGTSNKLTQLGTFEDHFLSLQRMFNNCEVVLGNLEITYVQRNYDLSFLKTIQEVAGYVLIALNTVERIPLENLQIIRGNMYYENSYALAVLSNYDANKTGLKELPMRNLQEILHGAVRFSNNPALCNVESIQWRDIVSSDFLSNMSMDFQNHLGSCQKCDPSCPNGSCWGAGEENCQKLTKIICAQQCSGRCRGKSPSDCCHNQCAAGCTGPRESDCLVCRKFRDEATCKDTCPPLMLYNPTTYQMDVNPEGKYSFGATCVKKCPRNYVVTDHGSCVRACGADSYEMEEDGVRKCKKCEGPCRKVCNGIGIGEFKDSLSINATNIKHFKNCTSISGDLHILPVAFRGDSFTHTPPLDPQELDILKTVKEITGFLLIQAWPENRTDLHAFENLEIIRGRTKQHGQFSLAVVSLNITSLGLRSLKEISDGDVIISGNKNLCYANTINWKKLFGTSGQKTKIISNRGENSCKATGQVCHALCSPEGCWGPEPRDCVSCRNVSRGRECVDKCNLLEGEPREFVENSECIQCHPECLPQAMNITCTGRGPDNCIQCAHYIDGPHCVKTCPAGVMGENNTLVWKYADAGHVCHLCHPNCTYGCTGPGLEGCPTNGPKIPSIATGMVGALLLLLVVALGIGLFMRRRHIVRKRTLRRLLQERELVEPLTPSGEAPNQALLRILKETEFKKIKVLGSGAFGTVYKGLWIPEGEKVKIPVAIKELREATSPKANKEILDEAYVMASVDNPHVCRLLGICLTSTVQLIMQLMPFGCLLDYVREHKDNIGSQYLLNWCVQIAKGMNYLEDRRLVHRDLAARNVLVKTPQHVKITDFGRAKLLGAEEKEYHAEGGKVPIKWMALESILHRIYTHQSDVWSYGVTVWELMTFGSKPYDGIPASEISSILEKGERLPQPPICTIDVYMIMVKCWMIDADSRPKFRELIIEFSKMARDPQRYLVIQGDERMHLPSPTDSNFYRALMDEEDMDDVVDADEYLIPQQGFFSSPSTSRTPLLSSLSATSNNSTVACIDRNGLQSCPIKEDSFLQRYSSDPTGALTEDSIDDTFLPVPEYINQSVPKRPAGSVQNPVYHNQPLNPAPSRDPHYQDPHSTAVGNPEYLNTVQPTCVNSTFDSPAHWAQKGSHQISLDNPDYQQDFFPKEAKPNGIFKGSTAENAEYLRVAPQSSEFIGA
Method: On the next day, the test compounds and DMSO control were added into H1975 cell plate followed by incubation at 37C/5% CO2 for 4-5 hours. […] Then 5 μL of a donor bead mix was added to each well followed by overnight incubation at room temperature in dark. On the next day, the plate was read at a compatible plate reader to obtain pEGFR signal. Percent of pEGFR inhibition was plotted against log concentration of compounds to generate IC50 values.

T1 sequence (P00533 25-1210 T790M/C797S/L858R): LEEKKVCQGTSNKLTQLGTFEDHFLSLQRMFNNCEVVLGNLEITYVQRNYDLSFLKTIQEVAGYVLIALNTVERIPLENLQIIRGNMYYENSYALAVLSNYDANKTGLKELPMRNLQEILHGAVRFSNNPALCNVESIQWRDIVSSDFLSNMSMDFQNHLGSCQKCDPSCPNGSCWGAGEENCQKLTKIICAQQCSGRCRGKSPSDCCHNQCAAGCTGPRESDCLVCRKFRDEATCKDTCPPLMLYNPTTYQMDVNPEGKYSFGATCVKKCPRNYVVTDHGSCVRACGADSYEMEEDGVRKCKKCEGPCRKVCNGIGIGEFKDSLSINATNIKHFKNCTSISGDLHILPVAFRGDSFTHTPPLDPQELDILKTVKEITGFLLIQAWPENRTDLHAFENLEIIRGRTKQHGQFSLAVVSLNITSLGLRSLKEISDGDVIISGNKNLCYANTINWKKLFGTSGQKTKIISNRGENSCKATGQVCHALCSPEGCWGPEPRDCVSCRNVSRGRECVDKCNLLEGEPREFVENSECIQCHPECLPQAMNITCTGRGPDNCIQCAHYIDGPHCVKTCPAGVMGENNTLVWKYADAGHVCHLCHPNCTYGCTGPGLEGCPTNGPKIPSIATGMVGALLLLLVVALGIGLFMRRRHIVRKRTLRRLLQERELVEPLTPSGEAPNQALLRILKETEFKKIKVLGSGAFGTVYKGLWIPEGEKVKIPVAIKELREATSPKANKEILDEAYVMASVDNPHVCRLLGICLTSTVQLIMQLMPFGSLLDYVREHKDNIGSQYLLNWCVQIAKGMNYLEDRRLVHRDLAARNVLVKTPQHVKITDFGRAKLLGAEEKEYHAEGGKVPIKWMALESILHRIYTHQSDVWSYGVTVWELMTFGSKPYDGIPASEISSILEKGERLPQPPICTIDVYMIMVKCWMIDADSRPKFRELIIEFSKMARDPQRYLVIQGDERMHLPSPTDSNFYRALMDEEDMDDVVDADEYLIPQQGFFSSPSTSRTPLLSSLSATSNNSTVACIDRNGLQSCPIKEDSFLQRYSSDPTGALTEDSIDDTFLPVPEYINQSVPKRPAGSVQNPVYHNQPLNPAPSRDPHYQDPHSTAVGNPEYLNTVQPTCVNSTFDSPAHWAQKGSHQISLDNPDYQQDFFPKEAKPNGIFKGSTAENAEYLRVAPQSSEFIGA

CC(C)c1ccc(N2CC(n3ccnn3)C2)c2cnc(Nc3ccnc(N4CC[C@@H](O)[C@@](C)(F)C4)n3)cc12 [Example 38, (3S,4R)-1-(4-((8-(3-(1H-1,2,3-triazol-1-yl)azetidin-1-yl)-5-isopropylisoquinolin-3-yl)amino)pyrimidin-2-yl)-3-fluoro-3-methylpiperidin-4-ol]
IC50 (EGFR (L858R T790M C797S)): < 15 nM
IC50 [1]: < 10 nM

C[C@@H]1CCN1c1ncc([C@@H](C)C(C)(C)O)c2cc(Nc3ccnc(N4CC[C@@H](O)[C@@](C)(F)C4)n3)ncc12 (single isomer, unassigned) [Example 186, (3S,4R)-3-fluoro-1-(4-((5-((R)-3-hydroxy-3-methylbutan-2-yl)-8-((R)-2-methylazetidin-1-yl)-2,7-naphthyridin-3-yl)amino)pyrimidin-2-yl)-3-methylpiperidin-4-ol or (3S,4R)-3-fluoro-1-(4-((5-((S)-3-hydroxy-3-methylbutan-2-yl)-8-((R)-2-methylazetidin-1-yl)-2,7-naphthyridin-3-yl)amino)pyrimidin-2-yl)-3-methylpiperidin-4-ol]
IC50 (EGFR (L858R T790M C797S)): < 15 nM
IC50 [1]: 10 to 20 nM

CC(C)c1cnc(-c2cnn(S(C)(=O)=O)c2)c2cnc(Nc3ccnc(N4CC[C@@H](O)[C@@](C)(F)C4)n3)cc12 [Example 18, (3S,4R)-3-fluoro-1-(4-((5-isopropyl-8-(1-(methylsulfonyl)-1H-pyrazol-4-yl)-2,7-naphthyridin-3-yl)amino)pyrimidin-2-yl)-3-methylpiperidin-4-ol]
IC50 (EGFR (L858R T790M C797S)): 15 to 20 nM
IC50 [1]: 30 to 50 nM

CC(C)c1cnc(N2CC3(C2)CC3(F)F)c2cnc(Nc3ccnc(N4CC[C@@H](O)[C@@](C)(F)C4)n3)cc12 [Example 59, (3S,4R)-1-(4-((8-(1,1-difluoro-5-azaspiro[2.3]hexan-5-yl)-5-isopropyl-2,7-naphthyridin-3-yl)amino)pyrimidin-2-yl)-3-fluoro-3-methylpiperidin-4-ol]
IC50 (EGFR (L858R T790M C797S)): < 15 nM
IC50 [1]: 10 to 20 nM

Cc1nnc(C2CN(c3ccc(C(C)C)c4cc(Nc5ccnc(N6CC[C@@H](O)[C@@](C)(F)C6)n5)ncc34)C2)o1 [Example 104, (3S,4R)-3-fluoro-1-(4-((5-isopropyl-8-(3-(5-methyl-1,3,4-oxadiazol-2-yl)azetidin-1-yl)isoquinolin-3-yl)amino)pyrimidin-2-yl)-3-methylpiperidin-4-ol]
IC50 (EGFR (L858R T790M C797S)): < 15 nM
IC50 [1]: < 10 nM

CO[C@@H]1CCN(c2nccc(Nc3cc4c(C(C)C)cnc(N5C[C@H](O)[C@H]5C)c4cn3)n2)C[C@@H]1F [Example 150, (2R,3S)-1-(6-((2-((3S,4R)-3-fluoro-4-methoxypiperidin-1-yl)pyrimidin-4-yl)amino)-4-isopropyl-2,7-naphthyridin-1-yl)-2-methylazetidin-3-ol]
IC50 (EGFR (L858R T790M C797S)): < 15 nM
IC50 [1]: < 10 nM

CC(C)c1cnc(-c2cnn(C(F)F)c2)c2cnc(Nc3ccnc(N4CC[C@@H](O)[C@@](C)(F)C4)n3)cc12 [Example 16, (3S,4R)-1-(4-((8-(1-(difluoromethyl)-1H-pyrazol-4-yl)-5-isopropyl-2,7-naphthyridin-3-yl)amino)pyrimidin-2-yl)-3-fluoro-3-methylpiperidin-4-ol]
IC50 (EGFR (L858R T790M C797S)): 15 to 20 nM
IC50 [1]: > 50 nM

CO[C@@H]1CCN(c2nccc(Nc3cc4c(C(C)C)cnc(N5CCC56CN(C)C6)c4cn3)n2)C[C@@H]1F [Example 41, N-(2-((3S,4R)-3-fluoro-4-methoxypiperidin-1-yl)pyrimidin-4-yl)-5-isopropyl-8-(6-methyl-1,6-diazaspiro[3.3]heptan-1-yl)-2,7-naphthyridin-3-amine]
IC50 (EGFR (L858R T790M C797S)): < 15 nM
IC50 [1]: 30 to 50 nM

Cc1nc(-c2ccc(C(C)C)c3cc(Nc4ccnc(N5CC[C@@H](O)[C@@](C)(F)C5)n4)ncc23)n[nH]1 [Example 26, (3S,4R)-3-fluoro-1-(4-((5-isopropyl-8-(5-methyl-1H-1,2,4-triazol-3-yl)isoquinolin-3-yl)amino)pyrimidin-2-yl)-3-methylpiperidin-4-ol]
IC50 (EGFR (L858R T790M C797S)): < 15 nM
IC50 [1]: 30 to 50 nM

— patent publication US20240382483A1, “HETEROCYCLIC EGFR INHIBITORS FOR USE IN THE TREATMENT OF CANCER” (Blueprint Medicines Corporation, priority 2021, published 2024)
